# Measured values reported in patent US20070105940A1, “Method for treating pain” (ALLERGAN, INC., priority 2005, published 2007).
# pIC50: −log10 of the molar value. Read-outs that look alike come from different tables or passages of the source.
# Assays:
# anandamide levels = test: Anandamide levels in the periaqueductal grey after intra-PAG injection; assay type: in vivo; conditions: 4 μg/rat intra-PAG, measured 20 min following injection
# TRPV1 channels [1] = target: T1, TRPV1 channels (Homo sapiens, UniProt Q8NER1); test: Blocking of TRPV1 channel activation by capsaicin; assay type: cell-based; conditions: capsaicin 100 nM; FIG. 1A; read-out: IC50 against capsaicin
# T1 sequence (Q8NER1 whole entry): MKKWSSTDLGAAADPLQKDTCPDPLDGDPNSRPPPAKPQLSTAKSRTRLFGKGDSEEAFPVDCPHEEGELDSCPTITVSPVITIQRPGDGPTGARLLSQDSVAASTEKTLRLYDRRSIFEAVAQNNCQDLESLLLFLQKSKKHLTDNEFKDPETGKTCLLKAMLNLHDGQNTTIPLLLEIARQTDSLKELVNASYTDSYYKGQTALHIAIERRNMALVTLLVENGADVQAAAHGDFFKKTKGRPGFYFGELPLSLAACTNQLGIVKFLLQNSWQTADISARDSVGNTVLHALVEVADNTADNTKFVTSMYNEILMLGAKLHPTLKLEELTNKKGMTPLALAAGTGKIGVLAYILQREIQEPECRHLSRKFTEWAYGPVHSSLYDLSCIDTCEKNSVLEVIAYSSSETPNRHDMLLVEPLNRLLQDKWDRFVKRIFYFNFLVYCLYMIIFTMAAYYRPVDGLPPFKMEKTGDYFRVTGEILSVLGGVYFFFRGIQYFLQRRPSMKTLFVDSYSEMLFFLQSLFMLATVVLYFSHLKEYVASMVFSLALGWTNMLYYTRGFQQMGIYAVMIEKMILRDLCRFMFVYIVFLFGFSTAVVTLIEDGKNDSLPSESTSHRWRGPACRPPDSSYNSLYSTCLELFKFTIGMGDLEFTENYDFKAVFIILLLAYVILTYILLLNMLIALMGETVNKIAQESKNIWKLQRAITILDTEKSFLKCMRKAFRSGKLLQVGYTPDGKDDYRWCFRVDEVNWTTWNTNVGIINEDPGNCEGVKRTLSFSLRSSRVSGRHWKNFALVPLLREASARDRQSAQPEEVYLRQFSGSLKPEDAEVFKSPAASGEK
# [2] = test system: OFF cells of the rostral ventromedial medulla; test: Inhibitory effect of formalin on OFF cells of the rostral ventromedial medulla; assay type: in vivo, rat; conditions: FIG. 2B
# [3] = test system: nociceptive response to formalin injected into the rat paw; test: Nociceptive response to formalin injected into the rat paw; assay type: in vivo
# [4] = test system: fatty acid amide hydrolase (FAAH); test: FAAH inhibition in vitro; assay type: biochemical
# Description: Similar results were obtained with other congeners, provided that at least one double bond was present in the acyl chain.
# [5] = test system: chronic constrictory injury (CCI) of the sciatic nerve; test: CCI neuropathic pain, mechanical allodynia (Dynamic Plantar Anaesthesiometer, paw withdrawal threshold); assay type: in vivo, rat; conditions: CCI rats, i.p. for 7 days; AA-5-HT 5 mg/kg, URB-597 3 mg/kg; FIG. 3
# Method: (§1) Neuropathic pain was induced by chronic constrictory injury (CCI) of the sciatic nerve. Rats were anaesthetized with sodium pentobarbital (60 mg/kg i.p.), the right sciatic nerve was exposed and four ligatures were loosely tied around the nerve just proximal to the trifurcation. Control rats underwent a sham surgery with exposure of the sciatic nerve without ligature.
# (§2) Changes in thermal and mechanical nociceptive responses have been evaluated using a Plantar Test Apparatus and Dynamic Plantar Anaesthesiometer (Ugo Basile, Varese, Italy). Thermal paw withdrawal latency and mechanical paw withdrawal threshold (PWL and PWT) were measured (in sec and grams, respectively) for each group of rats every 30 min for 3 h.
# [6] = test system: chronic constrictory injury (CCI) of the sciatic nerve; test: CCI neuropathic pain, thermal nociceptive response (Plantar Test, paw withdrawal latency); assay type: in vivo, rat; conditions: CCI rats, i.p. for 7 days; AA-5-HT 5 mg/kg, URB-597 3 mg/kg; FIG. 4
# Method: as §1, §2
# TRPV1 channels [7] = target: T1, TRPV1 channels; conditions: read-out: IC50 against capsaicin, previously reported; cited from earlier work
SMILES,anandamide levels in the PAG (anandamide levels),pIC50 (TRPV1 channels [1]),inhibitory effect of formalin on the OFF cells of the rostral ventromedial medulla ([2]; supraspinal level),"nociceptive response to formalin ([3]; 4 μg/rat injected into the periaqueductal grey (PAG), FIG. 2A)","nocifensive response to formalin ([3]; 1 mg/rat, s.c., injected into the paw)",type of FAAH inhibition [4],less potent than URB-597 at inhibiting FAAH ([4]; in vitro),mechanical allodynia [5],thermal nociceptive responses [6],effect on the action of AA-5-HT on OFF cells [2],"effect on the anti-hyperalgesic effect of AA-5-HT ([3]; AA-5-HT 4 μg/rat intra-PAG, AM251 (nmol/rat), capsazepine 6 nmol/rat)",effect on the action of AA-5-HT injected into the paw ([3]; AA-5-HT 1 mg/rat s.c. into the paw),pIC50 (TRPV1 channels [7])
"CCCCC/C=C\C/C=C\C/C=C\C/C=C\CCCC(=O)NCCc1c[nH]c2ccc(O)cc12 [AA-5-HT, N-arachidonoyl-serotonin]",elevated,6.89,blocking the inhibitory effect of formalin,potently inhibited both phases,"selectively blocked the 2nd, inflammatory phase",mixed inhibitors,100 fold,totally abolished,as efficacious as URB-597,–,–,–,–
"NC(=O)c1cccc(-c2cccc(OC(=O)NC3CCCCC3)c2)c1 [URB-597, reference compound]",–,–,–,–,–,–,–,ineffective,reducing thermal nociceptive responses,–,–,–,–
"Oc1cc2c(cc1O)CN(C(=S)NCCc1ccc(Cl)cc1)CCC2 [capsazepine, reference compound]",–,–,–,–,–,–,–,–,–,occluded,occluded,occluded,7.22
